For series [1], the system named is Hepatitis C virus. The experiment in a line: Antiviral activity against HCV genotype 1b replicon infected in human HuH7 cells at 10 uM after 3 days by luciferase reporter assay. Format: functional, Hepacivirus hominis. The settings on record: Huh-7, 72 h. (In general: In antiviral work, replicon cells carry a viral genome segment that copies itself.)
The nature of series [2]: Cytotoxicity against human HuH7 cells assessed as inhibition of cell viability at 10 uM after 3 days by CellTiter 96 aqueous one solution cell proliferation assay. It is filed as cell-based, Huh-7. To be noted: read-out: Activity.
Series [3] in a line: Thermodynamic solubility of the compound in DPBS buffer at pH 7.4 after 72 hrs by UV spectrometric analysis. Format: physicochemical. The settings on record: read-out: Therm_solubility.
Series [4] in a line: Half life in human liver microsomes at 1 uM by LC-MS/MS analysis in presence of NADPH. It is filed as ADME. (In general: Liver microsomes are a subcellular fraction often used to study metabolism.)
Series [5] is described as follows: Half life in mouse liver microsomes at 1 uM by LC-MS/MS analysis in presence of NADPH. Format: ADME.
The test system of series [6] is Hepatitis C virus. Nature of the series: Antiviral activity against HCV assessed as reduction of viral replicon RNA level by RT-qPCR analysis. It is filed as functional, organism-based. To be noted: Hepacivirus hominis.
Series [7] can be described thus: Half life in mouse liver microsomes at 1 uM by LC-MS/MS analysis in presence of UDPGA. Format: ADME.
Series [8] in a line: Half life in human liver microsomes at 1 uM by LC-MS/MS analysis in presence of UDPGA. It is filed as ADME.
Series [9] in a line: Half life in human plasma at 1 to 24 hrs by LC-MS/MS analysis. Format: ADME, cell-free.
The nature of series [10]: Half life in mouse plasma at 1 to 24 hrs by LC-MS/MS analysis. Format: ADME, cell-free.
In series [11] the test system is Hepatitis C virus. The experiment in a line: Antiviral activity against HCV genotype 1b replicon infected in human HuH7 cells after 3 days by luciferase reporter assay. It is filed as functional, organism-based, Hepacivirus hominis. To be noted: Huh-7, 72 h.
A short description of series [12]: Therapeutic index, ratio of CC50 for human HuH7 cells to EC50 for HCV genotype 1b replicon. Format: cell-based, Huh-7. The settings on record: read-out: Ratio CC50/EC50.
Series [13] can be described thus: Cytotoxicity against human HuH7 cells assessed as cell viability after 3 days by CellTiter 96 aqueous one solution cell proliferation assay. It is filed as cell-based, Huh-7.
Series [14] deals with Hepatitis C virus subtype 1b. The experiment in a line: Inhibition of recombinant HCV genotype 1b NS5B Cdelta55 RNA dependent RNA polymerase at 10 uM incubated for 3 hrs using Oligo-U12 primer, UTP and Poly(A) template by scintillation proximity assay. In general terms: In a scintillation proximity assay essentially only radioactivity close to the scintillant gives light.

In another series the target is Histone deacetylase 2 (Homo sapiens, UniProt Q92769). The experiment in a line: Inhibition of full length C-terminal His-tagged human HDAC2 expressed in Sf9 cells using (Arg-His-Lys-Lys(Ac)) as substrate by plate reader analysis.
Histone deacetylase 2, sequence (Q92769 whole entry): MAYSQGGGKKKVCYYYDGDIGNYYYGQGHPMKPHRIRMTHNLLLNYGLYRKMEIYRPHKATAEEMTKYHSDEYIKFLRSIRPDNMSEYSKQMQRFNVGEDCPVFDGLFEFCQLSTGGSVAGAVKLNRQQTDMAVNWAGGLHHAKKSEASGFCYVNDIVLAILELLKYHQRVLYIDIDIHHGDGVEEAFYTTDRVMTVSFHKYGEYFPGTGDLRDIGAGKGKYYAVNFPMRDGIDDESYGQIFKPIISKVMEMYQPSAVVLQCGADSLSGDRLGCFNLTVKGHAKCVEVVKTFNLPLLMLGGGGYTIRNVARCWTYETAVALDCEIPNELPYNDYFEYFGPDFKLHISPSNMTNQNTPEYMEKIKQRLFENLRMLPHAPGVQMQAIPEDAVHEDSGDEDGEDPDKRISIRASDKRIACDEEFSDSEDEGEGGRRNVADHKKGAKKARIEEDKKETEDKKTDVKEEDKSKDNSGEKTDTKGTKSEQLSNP
In the next series the target is Histone deacetylase 11 (Homo sapiens, UniProt Q96DB2). Nature of the series: Inhibition of N-terminal GST-tagged human HDAC11 expressed in baculovirus expression system using (Arg-His-Lys-Lys(Ac)) as substrate by plate reader analysis.
Histone deacetylase 11, sequence (Q96DB2 whole entry): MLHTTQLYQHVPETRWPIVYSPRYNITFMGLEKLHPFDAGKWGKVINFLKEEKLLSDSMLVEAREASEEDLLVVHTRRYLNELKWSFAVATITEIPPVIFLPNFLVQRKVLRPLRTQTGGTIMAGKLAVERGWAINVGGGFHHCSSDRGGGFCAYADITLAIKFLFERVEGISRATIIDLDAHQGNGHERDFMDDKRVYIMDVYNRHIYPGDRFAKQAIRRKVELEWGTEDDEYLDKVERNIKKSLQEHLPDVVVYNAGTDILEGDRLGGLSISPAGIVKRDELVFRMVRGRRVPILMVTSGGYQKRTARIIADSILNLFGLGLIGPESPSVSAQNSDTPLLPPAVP
The target of the next series is Stromelysin-1 (Homo sapiens, UniProt P08254). The experiment in a line: Inhibition of human recombinant MMP3 expressed in Escherichia coli using (5-FAM/QXLTM) FRET peptide as substrate.
For the next series, the target named is Stromelysin-2 (Homo sapiens, UniProt P09238). Nature of the series: Inhibition of human recombinant MMP10 expressed in Escherichia coli using (5-FAM/QXLTM) FRET peptide as substrate.
The target in the next series is Histone deacetylase 8 (Homo sapiens, UniProt Q9BY41). The experiment in a line: Inhibition of full length human HDAC8 expressed in Escherichia coli using (Arg-His-Lys(Ac)-Lys(Ac)) as substrate by plate reader analysis.
A further series concerns the target Histone deacetylase 5 (Homo sapiens, UniProt Q9UQL6). Nature of the series: Inhibition of full length N-terminal GST-tagged human HDAC5 expressed in Sf9 cells using (Boc-Lys(trifluoroacetyl)-AMC) as substrate by plate reader analysis.
Series [15] concerns the target Disintegrin and metalloproteinase domain-containing protein 17 (Homo sapiens, UniProt P78536). The experiment in a line: Inhibition of human recombinant TACE expressed in Sf21 cells using MCA-PLAQAV-Dpa-RSSSR-NH2 as substrate.
The target in a further series is Histone deacetylase 9 (Homo sapiens, UniProt Q9UKV0). Nature of the series: Inhibition of C-terminal His-tagged human HDAC9 expressed in baculovirus expression system using (Boc-Lys(trifluoroacetyl)-AMC) as substrate by plate reader analysis.
Histone deacetylase 9, sequence (Q9UKV0 whole entry): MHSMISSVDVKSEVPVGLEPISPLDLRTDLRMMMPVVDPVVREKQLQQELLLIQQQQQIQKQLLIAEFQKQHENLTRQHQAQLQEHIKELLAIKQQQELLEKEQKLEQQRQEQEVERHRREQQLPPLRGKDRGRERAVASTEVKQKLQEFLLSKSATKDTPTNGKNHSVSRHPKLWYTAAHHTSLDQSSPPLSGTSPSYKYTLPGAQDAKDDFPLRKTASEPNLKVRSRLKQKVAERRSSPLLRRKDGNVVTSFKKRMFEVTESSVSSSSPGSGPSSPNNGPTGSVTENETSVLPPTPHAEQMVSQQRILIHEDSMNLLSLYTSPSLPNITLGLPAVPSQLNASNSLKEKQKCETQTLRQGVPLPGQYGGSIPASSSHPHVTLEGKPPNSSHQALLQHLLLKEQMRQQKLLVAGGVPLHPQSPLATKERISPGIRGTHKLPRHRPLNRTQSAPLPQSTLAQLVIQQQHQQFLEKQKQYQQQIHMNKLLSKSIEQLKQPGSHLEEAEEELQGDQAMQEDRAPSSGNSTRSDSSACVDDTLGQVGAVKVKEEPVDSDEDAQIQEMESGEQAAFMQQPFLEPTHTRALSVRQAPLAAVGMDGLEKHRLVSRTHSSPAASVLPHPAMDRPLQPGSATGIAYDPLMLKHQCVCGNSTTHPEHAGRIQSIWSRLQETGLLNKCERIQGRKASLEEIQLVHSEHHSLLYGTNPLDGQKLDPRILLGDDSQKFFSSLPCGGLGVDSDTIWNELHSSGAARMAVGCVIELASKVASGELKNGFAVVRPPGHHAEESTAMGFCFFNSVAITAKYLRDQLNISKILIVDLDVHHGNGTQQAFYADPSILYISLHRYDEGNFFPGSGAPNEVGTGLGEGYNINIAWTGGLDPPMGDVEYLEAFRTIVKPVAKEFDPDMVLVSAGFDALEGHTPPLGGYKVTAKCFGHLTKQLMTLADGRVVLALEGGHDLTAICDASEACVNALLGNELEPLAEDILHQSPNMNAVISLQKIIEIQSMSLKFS
Series [16] deals with Matrix metalloproteinase-14 (Homo sapiens, UniProt P50281). Nature of the series: Inhibition of human recombinant MMP14 expressed in Escherichia coli using (5-FAM/QXLTM) FRET peptide as substrate.
The target of series [17] is Macrophage metalloelastase (Homo sapiens, UniProt P39900). Nature of the series: Inhibition of human recombinant MMP12 expressed in Escherichia coli using (5-FAM/QXLTM) FRET peptide as substrate.
Macrophage metalloelastase, sequence (P39900 whole entry): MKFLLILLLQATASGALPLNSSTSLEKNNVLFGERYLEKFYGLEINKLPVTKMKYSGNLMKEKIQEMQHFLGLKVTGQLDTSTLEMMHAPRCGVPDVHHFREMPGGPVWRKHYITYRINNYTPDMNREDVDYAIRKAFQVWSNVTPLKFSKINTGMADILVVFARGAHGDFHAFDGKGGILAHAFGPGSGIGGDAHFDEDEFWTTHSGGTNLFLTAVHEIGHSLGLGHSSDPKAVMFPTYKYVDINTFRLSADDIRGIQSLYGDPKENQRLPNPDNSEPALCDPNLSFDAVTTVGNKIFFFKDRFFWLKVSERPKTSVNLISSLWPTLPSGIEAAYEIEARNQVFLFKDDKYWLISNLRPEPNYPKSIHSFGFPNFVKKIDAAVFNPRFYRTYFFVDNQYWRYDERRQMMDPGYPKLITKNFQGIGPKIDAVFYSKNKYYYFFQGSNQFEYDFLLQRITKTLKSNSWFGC
The target in series [18] is Polyamine deacetylase HDAC10 (Homo sapiens, UniProt Q969S8). Nature of the series: Inhibition of N-terminal GST-tagged human HDAC10 expressed in Sf9 cells using (Arg-His-Lys-Lys(Ac)) as substrate by plate reader analysis.
Polyamine deacetylase HDAC10, sequence (Q969S8 whole entry): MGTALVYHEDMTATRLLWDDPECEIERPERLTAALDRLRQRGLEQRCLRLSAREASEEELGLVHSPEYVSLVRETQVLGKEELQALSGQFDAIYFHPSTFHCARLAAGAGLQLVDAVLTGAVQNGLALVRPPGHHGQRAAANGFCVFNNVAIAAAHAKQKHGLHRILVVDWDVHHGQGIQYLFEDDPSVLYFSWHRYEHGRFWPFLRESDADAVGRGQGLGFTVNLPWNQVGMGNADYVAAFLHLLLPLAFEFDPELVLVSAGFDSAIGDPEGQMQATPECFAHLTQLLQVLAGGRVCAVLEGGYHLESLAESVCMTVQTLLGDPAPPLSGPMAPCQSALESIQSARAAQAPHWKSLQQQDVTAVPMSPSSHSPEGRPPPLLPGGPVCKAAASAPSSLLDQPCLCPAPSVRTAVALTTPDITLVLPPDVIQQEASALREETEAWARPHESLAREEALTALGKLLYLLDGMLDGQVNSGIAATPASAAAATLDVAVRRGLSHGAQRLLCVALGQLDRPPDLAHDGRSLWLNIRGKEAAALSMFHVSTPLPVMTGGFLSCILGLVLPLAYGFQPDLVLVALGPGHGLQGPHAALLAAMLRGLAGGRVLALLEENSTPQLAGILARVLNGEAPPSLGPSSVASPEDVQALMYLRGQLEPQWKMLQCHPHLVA
Another series has as its target Interstitial collagenase (Homo sapiens, UniProt P03956). The experiment in a line: Inhibition of human recombinant MMP1 expressed in Escherichia coli using (5-FAM/QXLTM) FRET peptide as substrate.
For the next series, the target named is Histone deacetylase 3 (Homo sapiens, UniProt O15379). The experiment in a line: Inhibition of full length C-terminal His-tagged human HDAC3 expressed in baculovirus expression system using (Arg-His-Lys-Lys(Ac)) as substrate by plate reader analysis.
Histone deacetylase 3, sequence (O15379 whole entry): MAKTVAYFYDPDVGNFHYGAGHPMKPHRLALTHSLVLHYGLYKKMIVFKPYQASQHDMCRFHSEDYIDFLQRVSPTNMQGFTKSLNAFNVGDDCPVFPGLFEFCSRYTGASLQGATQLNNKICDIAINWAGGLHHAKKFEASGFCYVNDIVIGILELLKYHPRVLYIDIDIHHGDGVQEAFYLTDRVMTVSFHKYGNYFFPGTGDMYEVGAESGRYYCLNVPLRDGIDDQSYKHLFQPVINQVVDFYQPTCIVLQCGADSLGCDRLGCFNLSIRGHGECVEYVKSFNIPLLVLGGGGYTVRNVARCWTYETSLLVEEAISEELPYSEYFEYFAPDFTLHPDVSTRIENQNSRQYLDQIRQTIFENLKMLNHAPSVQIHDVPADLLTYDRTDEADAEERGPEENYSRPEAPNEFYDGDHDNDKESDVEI
A further series concerns the target Histone deacetylase 1 (Homo sapiens, UniProt Q13547). The experiment in a line: Inhibition of full length C-terminal GST-tagged human HDAC1 expressed in Sf9 cells using (Arg-His-Lys-Lys(Ac)) as substrate by plate reader analysis.
For a further series, the target named is Matrilysin (Homo sapiens, UniProt P09237). The experiment in a line: Inhibition of human recombinant MMP7 expressed in Escherichia coli using (5-FAM/QXLTM) FRET peptide as substrate.
Matrilysin, sequence (P09237 whole entry): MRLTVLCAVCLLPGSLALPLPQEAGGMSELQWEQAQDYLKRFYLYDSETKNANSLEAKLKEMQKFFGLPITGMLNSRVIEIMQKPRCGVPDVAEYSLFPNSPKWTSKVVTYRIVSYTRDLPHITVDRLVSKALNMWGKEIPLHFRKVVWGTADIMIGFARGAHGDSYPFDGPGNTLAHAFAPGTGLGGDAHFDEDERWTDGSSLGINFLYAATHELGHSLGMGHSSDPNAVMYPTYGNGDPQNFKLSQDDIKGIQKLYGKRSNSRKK
Another series addresses Histone deacetylase 4 (Homo sapiens, UniProt P56524). Nature of the series: Inhibition of N-terminal GST-tagged human HDAC4 expressed in baculovirus expression system using (Boc-Lys(trifluoroacetyl)-AMC) as substrate by plate reader analysis.
In a further series the target is Neutrophil collagenase (Homo sapiens, UniProt P22894). Nature of the series: Inhibition of human recombinant MMP8 expressed in Escherichia coli using (5-FAM/QXLTM) FRET peptide as substrate.
For series [19], the target named is Protein deacetylase HDAC6 (Homo sapiens, UniProt Q9UBN7). The experiment in a line: Inhibition of full length N-terminal GST-tagged human HDAC6 expressed in Sf9 cells using (Arg-His-Lys-Lys(Ac)) as substrate by plate reader analysis.
In series [20] the target is Matrix metalloproteinase-9 (Homo sapiens, UniProt P14780). Nature of the series: Inhibition of human recombinant MMP9 expressed in Escherichia coli using (5-FAM/QXLTM) FRET peptide as substrate.
Matrix metalloproteinase-9, sequence (P14780 whole entry): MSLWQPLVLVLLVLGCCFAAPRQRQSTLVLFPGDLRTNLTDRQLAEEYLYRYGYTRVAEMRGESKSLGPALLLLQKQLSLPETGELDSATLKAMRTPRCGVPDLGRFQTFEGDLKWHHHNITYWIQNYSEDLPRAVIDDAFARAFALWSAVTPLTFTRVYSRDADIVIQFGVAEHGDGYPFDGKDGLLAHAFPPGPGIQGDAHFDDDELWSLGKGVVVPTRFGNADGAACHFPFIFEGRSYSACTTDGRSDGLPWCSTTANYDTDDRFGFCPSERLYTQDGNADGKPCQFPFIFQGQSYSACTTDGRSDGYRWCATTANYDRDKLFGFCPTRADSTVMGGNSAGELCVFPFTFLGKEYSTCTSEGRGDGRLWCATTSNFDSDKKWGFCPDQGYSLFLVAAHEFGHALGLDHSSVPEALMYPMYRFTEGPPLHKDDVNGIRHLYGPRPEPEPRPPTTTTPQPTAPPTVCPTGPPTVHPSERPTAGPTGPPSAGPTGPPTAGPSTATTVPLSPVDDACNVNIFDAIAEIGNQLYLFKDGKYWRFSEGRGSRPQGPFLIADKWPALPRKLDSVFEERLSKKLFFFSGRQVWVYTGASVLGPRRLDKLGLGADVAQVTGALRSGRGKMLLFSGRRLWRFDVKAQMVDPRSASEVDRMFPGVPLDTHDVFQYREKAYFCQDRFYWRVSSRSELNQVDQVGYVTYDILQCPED
For a further series, the target named is Histone deacetylase 7 (Homo sapiens, UniProt Q8WUI4). The experiment in a line: Inhibition of N-terminal GST-tagged human HDAC7 expressed in baculovirus expression system using (Boc-Lys(trifluoroacetyl)-AMC) as substrate by plate reader analysis.
For a further series, the target named is Collagenase 3 (Homo sapiens, UniProt P45452). Nature of the series: Inhibition of human recombinant MMP13 expressed in Escherichia coli using (5-FAM/QXLTM) FRET peptide as substrate.
Series [21] is described as follows: Inhibition of recombinant HCV genotype 1b NS3/4A protease expressed in Escherichia coli using Ac-DE-D(Edans)-EE-Abu-[COO]-AS-K(Dabcyl)-NH2 as substrate. Details: species or system Hepatitis C virus subtype 1b.

For orientation: half-life means the time needed for the level to fall by half in the phase considered. As usually defined, the EC50 is the concentration that produces a half-maximal response. Read a low EC50 as an effect from little substance. As a reminder, the CC50 is the concentration at which the toxic effect on the cells reaches its halfway point. As usually defined, the IC50 is the concentration at which inhibition is half-maximal.

≈ marks a conversion by molar mass, not a printed value.

Histone deacetylase 1, sequence (Q13547 whole entry): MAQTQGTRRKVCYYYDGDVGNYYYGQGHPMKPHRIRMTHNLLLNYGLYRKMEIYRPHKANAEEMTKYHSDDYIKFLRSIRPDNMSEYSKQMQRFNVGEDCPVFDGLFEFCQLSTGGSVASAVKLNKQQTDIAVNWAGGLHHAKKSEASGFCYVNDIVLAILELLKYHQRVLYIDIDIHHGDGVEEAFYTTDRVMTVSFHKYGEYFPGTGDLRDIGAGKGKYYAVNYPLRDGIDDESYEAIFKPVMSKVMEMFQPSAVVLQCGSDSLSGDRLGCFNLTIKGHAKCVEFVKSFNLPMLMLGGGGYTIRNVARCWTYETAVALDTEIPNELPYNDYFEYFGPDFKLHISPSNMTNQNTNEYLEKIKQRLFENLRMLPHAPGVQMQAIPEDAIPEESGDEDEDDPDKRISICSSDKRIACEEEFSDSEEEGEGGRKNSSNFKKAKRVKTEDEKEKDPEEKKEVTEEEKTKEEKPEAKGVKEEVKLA

In turn, `[N-]=[N+]=NCCCNC(=O)CCCC[C@@H]1SC[C@@H]2NC(=O)N[C@@H]21` came in with an inhibition at 10 µM in the series with Hepatitis C virus [1] of less than 10%. Also, the inhibition at 72 h, 10 µM in series [2] is less than 5%.

With `O=C(NO)c1sc2ccccc2c1S(=O)(=O)c1ccccc1`, the solubility thermodynamic at 72 h in series [3] amounted to 3350 µM (≈ 1120 µg/mL). The half-life at 1 µM stood at 12.8 h in series [4], 1.31 h in series [5], 0.0283 h in series [7] and 0.0233 h in series [8]. Besides, in the series on Hepatitis C virus [6], the Activity entry was “Dose-dependent effect”. Also, the half-life in [9] and in series [10] was more than 24 h each time.

`C#CCCCC(=O)NCCOCCOCCOc1ccc(C(=O)c2ccc(/C=C/C(=O)O)cc2)cc1` returned an inhibition at 10 µM with Hepatitis C virus [1] of less than 5%. Moreover, in series [2], the inhibition at 72 h, 10 µM is less than 5%.

For the molecule `C#CCCCC(=O)NCCOCCOCCOc1ccc(C(=O)c2ccc(/C=C/C(=O)NO)cc2)cc1`, the EC50 in the series on Hepatitis C virus [11] worked out at 1.2 µM. Also, the selectivity ratio in series [12] was 21. In addition, the CC50 at 72 h in series [13] was found to be 25 µM.

Molecule `O=C(/C=C/c1ccc(C(=O)c2ccccc2)cc1)NO` displayed an EC50 in the series with Hepatitis C virus [11] of 0.48 µM. The selectivity ratio in series [12] was 33. Moreover, in [13], the CC50 at 72 h came to 16 µM.

With `O=C(/C=C/c1ccc(C(F)(F)F)cc1)NO`, the inhibition in [14] is less than 5%. For the same molecule, the IC50 was 6.36 µM against Histone deacetylase 2; 5.53 µM at Histone deacetylase 11; more than 100 µM at Stromelysin-1; more than 100 µM at Stromelysin-2; 0.954 µM at Histone deacetylase 8; 34.7 µM against Histone deacetylase 5. Besides, the IC50 in [15] is 21.5 µM; on Histone deacetylase 9 it was more than 100 µM; in series [16] it was more than 100 µM; in series [17], more than 100 µM; in series [18], 6.32 µM; at Interstitial collagenase it was more than 100 µM. In addition, the half-inhibitory concentration (IC50) was 5.37 µM against Histone deacetylase 3; 4.11 µM on Histone deacetylase 1; more than 100 µM on Matrilysin; more than 100 µM on Histone deacetylase 4; more than 100 µM on Neutrophil collagenase; 0.183 µM in series [19]. For the same molecule, the IC50 in [20] is more than 100 µM; at Histone deacetylase 7, more than 100 µM; at Collagenase 3, more than 100 µM; in [21], more than 200 µM. For the same molecule, the solubility thermodynamic at 72 h in series [3] was 648 µM (≈ 150 µg/mL). The half-life at 1 µM in [4] amounted to 11.6 h; in [5], 0.77 h; in series [7] it was 0.247 h; in series [8] it was 8.88 h. Further, the Activity result in the series on Hepatitis C virus [6] was “Dose-dependent effect”. The half-life in [9] is more than 24 h; in [10], 23.2 h.

The values above are taken from ChEMBL document CHEMBL3751715, “Design and synthesis of an activity-based protein profiling probe derived from cinnamic hydroxamic acid” (Bioorg Med Chem, 2016).
